The values below come from PubChem BioAssay (NCI).

Test systems include A549 NSCLC; HCT-15 colon; HS 578T breast; HL-60(TB) leukemia; SF-268 CNS; SK-MEL-5 melanoma; PC-3 prostate; SK-MEL-2 melanoma; OVCAR-3 ovarian; HCC-2998 colon.
What all share (test): NCI-60 cell line screen, 48 h

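Tested at 5 concentrations; 48 h exposure; 96-well plates; endpoints linearly interpolated, else capped at highest concentration. The concentration for 50% growth inhibition is given as GI50. TGI marks complete inhibition of growth.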 Bounds are passed on as bounds.

Take `CCCCN1CSC(=S)N(Cc2ccccc2)C1`: the TGI was greater than 100 µM in the experiment on A549 NSCLC; greater than 100 µM in the experiment with HCT-15 colon; greater than 100 µM in the experiment on HS 578T breast; 19.4 µM with HL-60(TB) leukemia; greater than 100 µM in the experiment with SF-268 CNS; 67.5 µM in the experiment with SK-MEL-5 melanoma. In addition, the figures for the TGI in the experiment on PC-3 prostate, in the experiment with SK-MEL-2 melanoma and in the experiment with OVCAR-3 ovarian were greater than 100 µM, greater than 100 µM and greater than 69.8 µM, respectively.
As to `COc1ccc(/C(Cl)=C(\C=O)c2ccc([N+](=O)[O-])cc2)cc1`, the TGI with A549 NSCLC is 66.6 µM; with HCT-15 colon, greater than 70.3 µM; in the experiment on HL-60(TB) leukemia, 10.7 µM; in the experiment with SF-268 CNS, 92.3 µM; with SK-MEL-5 melanoma it was 39.9 µM; in the experiment with HCC-2998 colon it was 62.6 µM. Moreover, the TGI with SK-MEL-2 melanoma amounted to 41.3 µM; in the experiment on OVCAR-3 ovarian it was 53.4 µM.
For `COc1ncc(-c2ccc3ncnc(Nc4cccc(Cl)c4)c3c2)cc1NS(=O)(=O)CCN1CCOCC1`, the GI50 in the experiment on HCT-15 colon is 0.448 µM; with HL-60(TB) leukemia, 0.38 µM; with SF-268 CNS, 0.382 µM; in the experiment with PC-3 prostate it was 0.326 µM. Further, the TGI with HCT-15 colon, in the experiment with HL-60(TB) leukemia, in the experiment with SF-268 CNS and in the experiment with PC-3 prostate was greater than 100 µM throughout.
For the compound `O=C(/C=C/c1c(O)ccc2ccccc12)c1ccccc1`, the TGI with A549 NSCLC, with HCT-15 colon, in the experiment with HL-60(TB) leukemia, in the experiment on SF-268 CNS, in the experiment on SK-MEL-5 melanoma and in the experiment with HCC-2998 colon was greater than 100 µM in each case. Moreover, the TGI in the experiment with SK-MEL-2 melanoma and in the experiment on OVCAR-3 ovarian was greater than 100 µM throughout.
Consider `N.N.O=C([O-])P(=O)([O-])[O-].[Na+].[Pt+4]`, for which the GI50 in the experiment on A549 NSCLC, with HCT-15 colon, in the experiment with HL-60(TB) leukemia, in the experiment with SF-268 CNS, with SK-MEL-5 melanoma and in the experiment on HCC-2998 colon was greater than 100 µM each time. In addition, the GI50 in the experiment with SK-MEL-2 melanoma and with OVCAR-3 ovarian was greater than 100 µM throughout. The TGI in the experiment with A549 NSCLC, in the experiment with HCT-15 colon, in the experiment on HL-60(TB) leukemia, in the experiment on SF-268 CNS, in the experiment with SK-MEL-5 melanoma and with HCC-2998 colon was greater than 100 µM each time. For the same compound, the TGI with SK-MEL-2 melanoma and in the experiment with OVCAR-3 ovarian was greater than 100 µM in each case.
With `Cc1[nH]c2ccccc2c1C1Cc2ccccc2N1C(=O)/C(Cl)=C/c1ccccc1` (configuration not stated), the TGI in the experiment on A549 NSCLC, with HCT-15 colon, with HL-60(TB) leukemia, with SF-268 CNS, in the experiment on SK-MEL-5 melanoma and in the experiment on HCC-2998 colon was greater than 100 µM throughout. The TGI in the experiment on SK-MEL-2 melanoma and with OVCAR-3 ovarian was greater than 100 µM in each case.
In the case of `Cc1nc2ccccc2c(=O)n1-c1ccccc1F`, the TGI with A549 NSCLC, in the experiment on HCT-15 colon, in the experiment on HL-60(TB) leukemia, with SF-268 CNS, in the experiment on SK-MEL-5 melanoma and in the experiment on HCC-2998 colon was greater than 100 µM in each case. Further, the TGI in the experiment with SK-MEL-2 melanoma and in the experiment with OVCAR-3 ovarian was greater than 100 µM throughout.
Take `CCCCCCC(=O)C/C(=N/NC(N)=S)C(=O)NC1C2CC3CC(C2)CC1C3` (configuration not stated): the TGI in the experiment on A549 NSCLC, in the experiment on HL-60(TB) leukemia, in the experiment on SF-268 CNS, with SK-MEL-5 melanoma, in the experiment with HCC-2998 colon and with SK-MEL-2 melanoma was greater than 100 µM throughout. The same compound gave a TGI with OVCAR-3 ovarian greater than 100 µM.
With `COc1ccc(CNc2nc3cc(C(F)(F)F)ccc3nc2C)cc1OC`, the TGI was greater than 100 µM in the experiment on A549 NSCLC; greater than 100 µM in the experiment with HCT-15 colon; 50.6 µM in the experiment on HL-60(TB) leukemia; greater than 100 µM in the experiment with SF-268 CNS; 31.3 µM in the experiment on SK-MEL-5 melanoma; 58.9 µM in the experiment on HCC-2998 colon. Moreover, the figures for the TGI in the experiment on SK-MEL-2 melanoma and with OVCAR-3 ovarian were 70.1 µM and greater than 100 µM, respectively.
As for `OC/C=C(\I)CCCOCOCc1ccccc1`, the TGI in the experiment with A549 NSCLC was greater than 100 µM; in the experiment with HCT-15 colon, greater than 100 µM; in the experiment on HL-60(TB) leukemia it was 35.8 µM; in the experiment on SF-268 CNS, greater than 100 µM; in the experiment with SK-MEL-5 melanoma, 54.5 µM; with HCC-2998 colon it was greater than 100 µM. The TGI in the experiment with SK-MEL-2 melanoma is 47.7 µM; with OVCAR-3 ovarian, greater than 100 µM.
Regarding `N#C/C(=C\c1cc2ccccc2c2ccccc12)c1ccccc1`, the TGI in the experiment on A549 NSCLC was greater than 100 µM; in the experiment with HCT-15 colon, 39.4 µM; in the experiment on HL-60(TB) leukemia, 14.8 µM; with SF-268 CNS, greater than 53.9 µM; in the experiment with SK-MEL-5 melanoma it was 19.7 µM; in the experiment on HCC-2998 colon, 59.2 µM. Moreover, the values for the TGI in the experiment with SK-MEL-2 melanoma and in the experiment on OVCAR-3 ovarian were 15.4 µM and greater than 25.6 µM, respectively.
With `COc1cc2c(c(OC)c1)C1(CC(CC#N)C2)SCCS1` (configuration not stated), the TGI with A549 NSCLC, in the experiment with HCT-15 colon, with HL-60(TB) leukemia, in the experiment with SF-268 CNS, in the experiment on SK-MEL-5 melanoma and with HCC-2998 colon was greater than 100 µM each time. Also, the TGI in the experiment on SK-MEL-2 melanoma and with OVCAR-3 ovarian was greater than 100 µM in each case.
`CC1=N/C(=C\c2cccc([N+](=O)[O-])c2)C(=O)O1`: the TGI in the experiment with A549 NSCLC, in the experiment on HCT-15 colon, with HL-60(TB) leukemia, in the experiment with SF-268 CNS, with SK-MEL-5 melanoma and with HCC-2998 colon was greater than 100 µM in each case. Further, the TGI in the experiment on SK-MEL-2 melanoma was greater than 100 µM.
Regarding `N#CCC(=O)NC1C2CC3CC(C2)CC1C3` (configuration not stated), the TGI in the experiment on A549 NSCLC is greater than 100 µM; with HCT-15 colon, 35.9 µM; in the experiment on HL-60(TB) leukemia, 61.6 µM; with SF-268 CNS, 35.7 µM; in the experiment on SK-MEL-5 melanoma, 27.9 µM; in the experiment with HCC-2998 colon, 31.9 µM. Also, the TGI in the experiment with SK-MEL-2 melanoma is 55.7 µM; with OVCAR-3 ovarian, 32 µM.
Consider `CCC(=O)c1c(C(F)(F)F)n([O-])c2ccc(C)cc2[n+]1=O`, for which the GI50 with A549 NSCLC was 11.3 µM; in the experiment with HCT-15 colon it was 3.05 µM; with HL-60(TB) leukemia, 4.82 µM; with SF-268 CNS, greater than 50 µM; in the experiment with SK-MEL-5 melanoma it was 4.33 µM; in the experiment on HCC-2998 colon, 5.92 µM. Besides, the results for the GI50 with PC-3 prostate, in the experiment on SK-MEL-2 melanoma and with OVCAR-3 ovarian were 2.27 µM, 8.35 µM and 3.88 µM, respectively. For the same compound, the TGI with A549 NSCLC is greater than 50 µM; in the experiment on HCT-15 colon, greater than 50 µM; in the experiment with HL-60(TB) leukemia, greater than 50 µM; in the experiment with SF-268 CNS it was greater than 50 µM; with SK-MEL-5 melanoma, 13.9 µM; in the experiment with HCC-2998 colon, 21.9 µM. In addition, the TGI in the experiment with PC-3 prostate is 15.1 µM; in the experiment on SK-MEL-2 melanoma it was greater than 50 µM; in the experiment on OVCAR-3 ovarian, 15 µM.
